Columns and labels:
[1] = test system: Human follicle dermal papilla cells; assay: Human follicle dermal papilla cell viability (WST / CCK-8); type: cell-based; conditions: for Human follicle dermal papilla cell viability: 24 hours
Method: (§1) Human follicle dermal papilla cells (PromoCell GmbH) were cultured in human follicle dermal papilla cells growth medium (PromoCell GmbH) supplemented with fetal calf serum (FCS), bovine pituitary extract (BPE), basic fibroblast growth factor (bFGF), and insulin at 37° C. and 5% CO2.
The cultured human follicle dermal papilla cells were divided into 5×10^3 cells in a 96-well plate, and when the cells reached 80% or more confluency, they were treated with the 3-hydroxypropionic acid aqueous solution according to Preparation Example 1 at four concentrations ([…]), and then cultured for 24 hours. WST substrate solution (high sensitivity water soluble tetrazolium salt, CCK-8, DOJINDO) was then added to the medium, and cultured at 37° C. for 2 hours.
During the culture, a […] formazan was produced by the reaction between WST and intracellular dehydrogenase, and the absorbance (OD, wavelength 450 nm) was measured.
In Equation 1, the ‘experimental group’ is the group treated with an aqueous solution containing 3HP; the ‘control group’ is the medium containing only the WST substrate; and the ‘negative control group’ is the group in which a medium containing WST substrate was treated with an aqueous solution of 0% 3HP.

[2] = test system: 5α-reductase gene (Srd5α1); assay: 5α-reductase gene expression level (real-time PCR, GAPDH-normalised) in human follicle dermal papilla cells; type: cell-based; conditions: for mrna remaining at 0.0125 % / mrna remaining at 0.025 % / mrna remaining at 0.05 %: Homo sapiens, 24 h, 24 hours; for mrna remaining at 0.0125 %: 3HP 0.0125 wt. %; for mrna remaining at 0.025 %: 3HP 0.025 wt. %; for mrna remaining at 0.05 %: 3HP 0.05 wt. %
Method: as §1
(§2) The cultured human follicle dermal papilla cells were divided into 5×10^4 cells in a 96-well plate, and when the cells reached 80% or more confluency, they were treated with the 3-hydroxypropionic acid aqueous solution according to Preparation Example 1 at four concentrations (3HP concentrations: 0 wt. %, 0.0125 wt. %, 0.025 wt. %, and 0.05 wt. %), and then cultured for 24 hours. Then, the total RNA in the cells was extracted, and cDNA was synthesized from the extracted RNA. The synthesized cDNA was subjected to real-time polymerase chain reaction. And, the relative quantitative analysis of each gene was performed using GAPDH (one of the house-keeping genes). The relative quantification (RQ) value was calculated according to the following Equation 2.
(§3) In the Equation 2, ‘Treatment’ is the group treated with 3HP; ‘Control’ is the group not treated with 3HP; ‘Target gene’ is Srd5α1 and TGF-β1, and ‘House-keeping gene’ is GAPDH.

[3] = test system: TGF-β1 gene; assay: TGF-β1 gene expression level (real-time PCR, GAPDH-normalised) in human follicle dermal papilla cells; type: cell-based; conditions: for mrna remaining at 0.0125 % / mrna remaining at 0.025 % / mrna remaining at 0.05 %: Homo sapiens, 24 h, 24 hours; for mrna remaining at 0.0125 %: 3HP 0.0125 wt. %; for mrna remaining at 0.025 %: 3HP 0.025 wt. %; for mrna remaining at 0.05 %: 3HP 0.05 wt. %
Method: as §1, §2, §3

[4] = test system: human hair follicles; assay: Evaluation of the ratio of hair follicle telogen in DHT-treated anagen hair follicle tissue (ex vivo culture); type: cell-based; conditions: for Telogen ratio: 6 days vs day 0
Method: (§4) The ratio of hair follicle telogen and the expression level of hair follicle cell proliferation-related factor proteins depending on whether 3-hydroxypropionic acid was applied or not were evaluated according to the following methods.
The human hair follicles or scalp tissues provided for research purposes (IRB No. 4-2023-1052; Institutional Review Board, Severance Medical Center, Yonsei University College of Medicine) were washed several times with PBS to remove residual impurities, and randomly divided into each group. The hair follicles and scalp tissues were cultured in Williams' Medium E (Sigma) supplemented with 2 mM L-glutamine (Sigma-Aldrich), 10 μg/ml insulin (Sigma-Aldrich), 100 ng/ml hydrocortisone (Sigma-Aldrich), 0.1% fungizone (Gibco, USA), and 1% antibiotic-antimycotic (Gibco), and 1% penicillin-[…] (Gibco) at 37° C. in 5% CO2.
To induce the telogen in the anagen hair follicle tissue, the test composition was treated with 1 μM dihydrotestosterone (DHT). The medium was replaced every 3 days and cultured for 6 days. The ratio of hair follicle telogen was visually evaluated based on the ratio of hair follicles in which the telogen occurred for 6 days compared to day 0.

[5] = test system: Ki67; assay: Expression of cell proliferation-related factor protein Ki67 (immunofluorescence) in cultured scalp tissue; type: cell-based, human; conditions: 0.1% 3HP, compared to the negative control group
Method: as §4
The human hair follicles or scalp tissues provided for research purposes (IRB No. 4-2023-1052; Institutional Review Board, Severance Medical Center, Yonsei University College of Medicine) were washed several times with PBS to remove residual impurities, and randomly divided into each group. […]
After the scalp tissue was treated with the test composition for 24 hours, the obtained tissue was prepared into a frozen block, and frozen sectioned at a thickness of 5 μm using a Cryostat microtome (Leica Biosystems, Germany), and the tissue sections were attached onto Silane-coated slides. […] Finally, the tissues were fixed with a fixative containing blue fluorescent DAPI (VECTASHIELD® mounting medium with DAPI; Vector laboratories) that stains the cell nucleus, and then images were taken at 100× magnification using a fluorescence microscope (M2; Zeiss). The percentage of Ki67-expressing cells among the total cells labeled with DAPI was measured from the captured images, and a higher value means a higher number of Ki67-expressing cells.

[6] = under the treatment concentration

`O=C(O)CCO` [3HP, 3-hydroxypropionic acid] was tested, and the “Human follicle dermal papilla cell viability” value ([1]; 3HP 0.025 wt. %, Average, SD 2.561, p-value 0.012 vs negative control (100%)) was 86.684%, the “Human follicle dermal papilla cell viability” value ([1]; 3HP 0.05 wt. %, Average, SD 0.735, p-value 0.001 vs negative control (100%)) was 85.841% and the “Human follicle dermal papilla cell viability” value ([1]; 3HP 0.05 wt. %, single run: Once) was 86.465%. For the same molecule, the “Human follicle dermal papilla cell viability” value ([1]; 3HP 0.1%, Average, SD 2.416, p-value 0.003 vs negative control (100%)) was 75.333%, the “cell viability (in words)” value ([1]; under the above treatment concentrations) was “high” and the mrna remaining at 0.0125 % ([2]; single run: Three times) was 92.7%. It also gave a mrna remaining at 0.0125 % ([2]; single run: Two times) of 81.5%, a mrna remaining at 0.025 % ([2]; single run: Three times) of 91.4% and a mrna remaining at 0.025 % ([2]; single run: Two times) of 88%. It also gave a mrna remaining at 0.05 % ([2]; single run: Once) of 132%, a mrna remaining at 0.05 % ([2]; single run: Three times) of 135% and a mrna remaining at 0.05 % ([2]; single run: Two times) of 113%. For the same molecule, the “expression of the 5α-reductase gene (in words)” value [2, 6] was “significantly inhibited”, the mrna remaining at 0.0125 % ([3]; single run: Three times) was 78.5% and the mrna remaining at 0.0125 % ([3]; single run: Two times) was 86.4%. It also gave a mrna remaining at 0.025 % ([3]; single run: Three times) of 65.5%, a mrna remaining at 0.025 % ([3]; single run: Two times) of 72.3% and a mrna remaining at 0.05 % ([3]; single run: Once) of 131%. For the same molecule, the mrna remaining at 0.05 % ([3]; single run: Three times) was 118%, the mrna remaining at 0.05 % ([3]; single run: Two times) was 140% and the “expression of the TGF-β1 gene (in words)” value [3, 6] was “significantly inhibited”. The “hair follicle telogen ratio (in words)” value ([4]; 0.1%, 0.5%, and 1.0% 3HP, compared to the DHT control group) was “significantly decreased”, the Telogen ratio ([4]; DHT (1 μM) + 0.5% 3HP, DHT alone 40.000) was 0.000% and the Telogen ratio ([4]; DHT (1 μM) + 1.0% 3HP, DHT alone 40.000) was 0.000%. The “proliferation effect of hair follicle cells (in words)” value [5] was “significantly increased”.

Molecule `O=C(O)CCCC[C@@H]1SC[C@@H]2NC(=O)N[C@@H]21` [Biotin, reference compound] has a Telogen ratio ([4]; DHT (1 μM) + 2 ng/ml Biotin, DHT alone 40.000) of 10.000%.

With `C[C@]12CCC(=O)C[C@@H]1CC[C@@H]1[C@@H]2CC[C@]2(C)[C@@H](O)CC[C@@H]12` [DHT, dihydrotestosterone, reference compound] the Telogen ratio ([4]; 1 μM DHT alone (telogen inducer), Control 36.667) was 40.000%.

Molecule `CC(C)(C)NC(=O)[C@H]1CC[C@H]2[C@@H]3CC[C@H]4NC(=O)C=C[C@]4(C)[C@H]3CC[C@]12C` [Finasteride, reference compound] has a Telogen ratio ([4]; DHT (1 μM) + 0.5 mM Finasteride, DHT alone 40.000) of 0.000%.
